# Read-outs that look alike come from different tables or passages of the source.
# What was measured:
# [1] = Cytotoxicity assay (Cell Counting Kit-8) in Vero cells; conditions: African green monkey
# [2] = Cytotoxicity assay (Cell Counting Kit-8) in HBCA cells; conditions: human, human brain cortical astrocytes (HBCA)
# TBEV, strain Hypr [3] = system: TBEV, strain Hypr
# [4] = Cytotoxicity assay (Cell Counting Kit-8) in PS cells; conditions: pig, porcine kidney stable (PS) cells
# [5] = Cytotoxicity assay (Cell Counting Kit-8) in UKF-NB-4 cells; conditions: human, UKF-NB-4 neuroblastoma cells
# TBEV, strain Hypr [6] = experiment: microbe, parasite or virus in culture; conditions: Tick-borne encephalitis virus, Vero
# [7] = Cytotoxicity assay (Cell Counting Kit-8) in Huh-7 cells; conditions: human, Huh-7 hepatocarcinoma cells
# [8] = system: human lung carcinoma cells (A549); conditions: cited from earlier work
# WNV, strain Eg-101 [9] = system: WNV, strain Eg-101
# HSV-1, strain MacIntyre [10] = experiment: microbe, parasite or virus in culture; conditions: Human alphaherpesvirus 1, Vero
# [11] = Light sensitivity of the prepared sample; assay type: physicochemical; conditions: solid sample; surface coloration, detrimental to antivirus activities
# [12] = system: rabbit lung cells (RL-33); conditions: RL-33 cells; cited from earlier work
# RVFV, strain H13/96 [13] = experiment: microbe, parasite or virus in culture; conditions: Rift Valley fever virus, Vero
# ZIKV, strain Paraiba_01 [14] = system: ZIKV, strain Paraiba_01
# ZIKV strain Paraiba_01 = experiment: Mechanistic plaque number assay, ZIKV in Vero cells; assay type: cell-based, Zika virus; conditions: diphyllin 1 100 µM, bafilomycin A1 100 nM
# WNV, strain Eg-101 [15] = experiment: microbe, parasite or virus in culture; conditions: West Nile virus, Vero
# [16] = system: endosomal acidification in Vero cells; experiment: Analysis of endosomal acidification with acridine orange; assay type: cell-based, African Green Monkey; conditions: 20 min
# [17] = system: Mardin-Darby canine kidney cells (MDCK); conditions: cited from earlier work
# [18] = system: feline macrophage-like cells (fcwf-4); conditions: fcwf-4 cells; cited from earlier work
# ZIKV, strain Paraiba_01 [19] = experiment: microbe, parasite or virus in culture; conditions: Zika virus, Vero
# HSV-1 strain MacIntyre = experiment: Mechanistic plaque number assay, HSV-1 in Vero cells; assay type: cell-based, herpes simplex virus type 1; conditions: diphyllin 1 100 µM, bafilomycin A1 100 nM
# RABV, strain CVS-11 [20] = system: RABV, strain CVS-11
# [21] = Cytotoxicity assay (Cell Counting Kit-8) in BHK-21 cells; conditions: hamster, BHK-21 cells (baby hamster kidney)
# HSV-1, strain MacIntyre [22] = system: HSV-1, strain MacIntyre
# RABV, strain CVS-11 [23] = experiment: microbe, parasite or virus in culture; conditions: Lyssavirus rabies, BHK-21, 72 h
# RVFV, strain H13/96 [24] = system: RVFV, strain H13/96
# [25] = 3 h p.i. treatment then washing, plaques counted at 120 h
# [26] = compound kept for the whole 120 h p.i.
# [27] = 3 h p.i. treatment then washing, plaques counted at 72 h
# [28] = compound kept for the whole 72 h p.i.
smiles,measurement,setting,value
"COc1cc2c(O[C@@H]3O[C@H](CO)[C@@H](O)[C@H](O)[C@H]3O)c3c(c(-c4ccc5c(c4)OCO5)c2cc1OC)C(=O)OC3 [Cleistanthin B 8, diphyllin-4-β-D-glucopyranoside, reference compound]",CC50 at 48 h,[1],> 100 µM
same,CC50 at 72 h,[1],> 100 µM
same,CC50 at 144 h,[1],80.7 µM
same,CC50 at 48 h,[2],2.08 µM
same,SI (CC50/EC50),"TBEV, strain Hypr [3]",>18.08
same,CC50 at 48 h,[4],78.9 µM
same,CC50 at 48 h,[5],6.17 µM
same,EC50,"TBEV, strain Hypr [6]",5.53 µM
same,CC50 at 48 h,[7],3.96 µM
"COc1cc2c(O)c3c(c(-c4ccc5c(c4)OCO5)c2cc1OC)C(=O)OC3 [Diphyllin 1, 9-(3‣,4‣-methylenedioxyphenyl)-4-hydroxy-6,7-dimethoxynaphtho[2,3-c]furan-1(3H)-one]",CC50,[8],24 µM
same,SI (CC50/EC50),"WNV, strain Eg-101 [9]",>128.20
same,EC50,"HSV-1, strain MacIntyre [10]",0.59 µM
same,light sensitivity,[11],rather light-sensitive
same,CC50,[12],63 µg/mL
same,EC50,"RVFV, strain H13/96 [13]",0.46 µM
same,CC50 at 48 h,[1],> 100 µM
same,CC50 at 72 h,[1],> 100 µM
same,CC50 at 144 h,[1],18.2 µM
same,SI (CC50/EC50),"ZIKV, strain Paraiba_01 [14]",>185.19
same,susceptibility of ZIKV (plaque number),ZIKV strain Paraiba_01; [25],susceptible
same,susceptibility of ZIKV (plaque number),ZIKV strain Paraiba_01; [26],susceptible
same,EC50,"WNV, strain Eg-101 [15]",0.78 µM
same,CC50 at 48 h,[2],3.39 µM
same,red fluorescence intensity of acidic endosomes (acridine orange),"[16]; 100 µM, versus DMSO control",much reduced
same,CC50,[17],3.48 µM
same,CC50,[18],5.99 µM
same,EC50,"ZIKV, strain Paraiba_01 [19]",0.54 µM
same,susceptibility of HSV-1 (plaque number),HSV-1 strain MacIntyre; [27],not susceptible
same,susceptibility of HSV-1 (plaque number),HSV-1 strain MacIntyre; [28],highly susceptible
same,SI (CC50/EC50),"TBEV, strain Hypr [3]",>117.64
same,CC50 at 48 h,[4],92.4 µM
same,CC50 at 48 h,[5],11.1 µM
same,EC50,"TBEV, strain Hypr [6]",0.85 µM
same,EC50,"TBEV, strain Hypr [6]; 48 h",1.04 µM
same,SI (CC50/EC50),"RABV, strain CVS-11 [20]",>15.80
same,drop in RABV RNA copies/µL compared with RABV-infected control cells,"RABV, strain CVS-11 [20]",10^2
same,CC50 at 48 h,[7],1.89 µM
same,CC50 at 72 h,[21],> 100 µM
same,SI (CC50/EC50),"HSV-1, strain MacIntyre [22]",>169.49
same,concentration at which complete HSV-1 suppression starts,"HSV-1, strain MacIntyre [22]",≥ 2.5 µM
same,EC50,"RABV, strain CVS-11 [23]",6.33 µM
same,SI (CC50/EC50),"RVFV, strain H13/96 [24]",>217.39
"CO/C1=C\C(C)=C\[C@@H](C)[C@@H](O)[C@@H](C)C/C(C)=C/C=C/[C@H](OC)[C@@H]([C@@H](C)[C@@H](O)[C@H](C)[C@@]2(O)C[C@@H](O)[C@H](C)[C@@H](C(C)C)O2)OC1=O [bafilomycin A1, reference compound]",EC50,"HSV-1, strain MacIntyre [10]; 48 h",> 0.1 µM
same,"viability at 48 h, 0.15 µM",[1],~80%
same,susceptibility of ZIKV (plaque number),ZIKV strain Paraiba_01; [25],susceptible
same,susceptibility of ZIKV (plaque number),ZIKV strain Paraiba_01; [26],susceptible
same,red fluorescence intensity of acidic endosomes (acridine orange),"[16]; 100 nM, positive control",all the more obvious
same,EC50,"ZIKV, strain Paraiba_01 [19]; 48 h",0.00244 µM
same,susceptibility of HSV-1 (plaque number),HSV-1 strain MacIntyre; [27],not susceptible
same,susceptibility of HSV-1 (plaque number),HSV-1 strain MacIntyre; [28],not susceptible
same,effect on HSV-1 virus titers,"HSV-1, strain MacIntyre [22]",no effect
"COc1cc2c(O)c3c(c(-c4ccc5c(c4)OCO5)c2cc1OC)C(=O)OC3 [commercial product, diphyllin]",EC50,"TBEV, strain Hypr [3]",1.24 µM

# Source: PMC8874615 (Viruses, 2022)
